From ChEMBL document CHEMBL4385652, “Discovery of a novel orally active TRPV4 inhibitor: Part 1. Optimization from an HTS hit” (Bioorg Med Chem, 2019)

Tests used:
physchem = conditions: 1-octanol/phosphate buffer, pH 7.4
in vitro [1] = conditions: human, pooled liver microsomes
in vitro [2] = conditions: rat, pooled liver microsomes

| Structure (SMILES) | logD (physchem) | CLint scaled at 0.75 h, 0.2 µM (in vitro [1]) | CLint scaled at 0.75 h, 0.2 µM (in vitro [2]) |
| --- | --- | --- | --- |
| COc1cc(OC)cc(C(=O)Nc2nc(-c3ccccc3)c(CCCN3CCOCC3)s2)c1 | 4.7 | – | – |
| COc1cc(OC)cc(C(=O)Nc2nc(-c3ccccc3)c(CCCN(C)C)s2)c1 | 3.5 | – | – |
| COc1cc(OC)cc(C(=O)Nc2nc(-c3ccccc3)c(CN3CCCCC3)s2)c1 | 4.9 | – | – |
| Cc1nn(-c2ccc(F)cn2)cc1C(=O)Nc1nc(C2CCC2)c(CCN2CCCCC2)s1 | 4.5 | 120 mL/min/kg | 798 mL/min/kg |
| COc1cc(OC)cc(C(=O)Nc2nc(-c3ccccc3)c(CCCN3CCN(C)CC3)s2)c1 | 4.1 | – | – |
| COc1cc(OC)cc(C(=O)Nc2nc(-c3ccccc3)c(C3CCN(C)CC3)s2)c1 | 3.6 | – | – |
| COc1cc(OC)cc(C(=O)Nc2nc(-c3ccccc3)c(CCCN3CCCCC3)s2)c1 | 4.1 | – | – |
| COc1cc(OC)cc(C(=O)Nc2nc(-c3ccccn3)c(N3CCN(C)CC3)s2)c1 | 3.7 | – | – |
| COc1cc(OC)cc(C(=O)Nc2nc(-c3cccnc3)c(N3CCN(C)CC3)s2)c1 | 4.1 | – | – |
| COc1cc(OC)cc(C(=O)Nc2nc(-c3ccncc3)c(N3CCN(C)CC3)s2)c1 | 4.1 | – | – |

Continued, values first:

| logD (physchem) | CLint scaled at 0.75 h, 0.2 µM (in vitro [1]) | CLint scaled at 0.75 h, 0.2 µM (in vitro [2]) | Structure (SMILES) |
| --- | --- | --- | --- |
| 4.3 | – | – | Cc1c(C(=O)Nc2nc(C3CCC3)c(N3CCN(C)CC3)s2)cnn1C1CCC(F)(F)CC1 |
| 4.9 | – | – | CN1CCN(c2sc(NC(=O)c3cc(-c4ccccc4)n(C)n3)nc2C2CCC2)CC1 |
| 4.1 | 527 mL/min/kg | > 1000 mL/min/kg | Cc1c(C(=O)Nc2nc(C3CCC3)c(CCN3CCCCC3)s2)cnn1-c1ccc(F)cc1 |
| 4 | – | – | COc1cc(OC)cc(C(=O)Nc2nc(C3CC3)c(N3CCN(C)CC3)s2)c1 |
| 4 | – | – | Cc1c(C(=O)Nc2nc(C3CCC3)c(N3CCN(C)CC3)s2)cnn1-c1ccc(C#N)cc1 |
| 4.8 | – | – | Cc1c(C(=O)Nc2nc(C3CCC3)c(N3CCN(C)CC3)s2)cnn1-c1ccc(F)cc1 |
| 4.6 | – | – | COc1cc(OC)cc(C(=O)Nc2nc(C3CCC3)c(N3CCN(C)CC3)s2)c1 |
